Test results taken from patent US10245332B2, “Contrast agents for applications including perfusion imaging” (Lantheus Medical Imaging, Inc., priority 2008, dated 2019).

What was measured:
[1] = microPET imaging of NHP brain after intravenous injection; assay type: in vivo, nonhuman primates (NHP)
Procedure: Similarly, in nonhuman primates (NHP), about 3 mCi of Agent 1 or Agent 2 was injected intravenously and the brain of NHP was imaged in a microPET. […] The NHP brain was not visible when imaged with Agent 1.

[2] = microPET brain imaging in normal NHP (Example 13); assay type: in vivo, nonhuman primates (NHP); conditions: 30 minutes post injection of 5.1 mCi
Procedure: (§1) Imaging was performed with a microPET camera (Focus220, MICROPET) in anesthetized rats, rabbits and nonhuman primates (NHP) following the intravenous administration of 1, 2 and 3 mCi of ^18F labeled 2-tert-butyl-4-chloro-5-[4-(2-fluoro-ethoxymethyl)-benzyloy]-2H-pyridazin-3-one, also referred to herein as Agent 2. After count acquisition, images were constructed and manually re-orientated as a series of tomographic views. […] These images were acquired 30 minutes post injection (mpi) of 5.1 mCi of 2-tert-butyl-4-chloro-5-[4-(2-[^18F]fluoro-ethoxymethyl)-benzyloy]-2H-pyridazin-3-one and were decay corrected.

[3] = microPET imaging of rat brain after intravenous injection; assay type: in vivo; conditions: about 1 mCi intravenously
Procedure: After anesthesia, about 1 mCi of Agent 2 or Agent 3 was injected into a rat intravenously and the rat brain was imaged in a microPET scanner. Following the image acquisition, the images were reconstructed into tomographic views.

[4] = Intravenous injection during microPET imaging in normal animals: heart rate, ECG, adverse effects; assay type: in vivo, rats, rabbits and nonhuman primates; conditions: anesthetized animals
Procedure: as §1

tumor = assay: Tumor uptake measured in mouse tumor models after imaging; assay type: in vivo; conditions: about 500 μCi intravenously
Procedure: Imaging studies using several mouse tumor models, including c-neu ONCO mice, nu/nu mice with OVCAR tumor, and nu/nu mice with HT1080 tumor, were conducted using contrast agents described herein. After administering anesthesia to the mouse, about 500 μCi of Agent 2 (from Table 1) were injected intravenously and the tumor was imaged in a microPET scanner. After imaging acquisition, images were reconstructed into tomographic views. […] In addition, tumor uptake of Agent 2 was measured in the mouse models after imaging. The uptake was detectable in a range from 1-4% injected dose per gram tissue.

penetration into the brain, relative to Agent 2 ([1]; SAR study of Example 14)	Structure (SMILES)	visibility of NHP brain in microPET images ([1]; NHP, about 3 mCi intravenously)	transport into the brain (uptake and resolution of the images) [2]	passing the blood brain barrier and accumulating in the brain [3]	changes in heart rate and ECG waveforms [4]	survival and adverse effects during image acquisition period [4]	tumor uptake (tumor)	passing through blood brain barrier and accumulating in the brain ([1]; NHP, about 3 mCi intravenously)
decreased penetration into the brain	CC(C)(C)n1ncc(OCc2ccc(CCCC[18F])cc2)c(Cl)c1=O [Agent 1, 2-tert-butyl-4-chloro-5-[4-(4-[^18F]fluoro-butyl)-benzyloxy]-2H-pyridazin-3-one]	not visible	–	–	–	–	–	–
–	CC(C)(C)n1ncc(OCc2ccc(COCC[18F])cc2)c(Cl)c1=O [Agent 2, 2-tert-Butyl-4-chloro-5-[4-(2-(^18F)fluoroethoxymethyl)-benzyloxy]-2H-pyridazin-3-one]	visible	efficiently transported into the brain	capable of passing the blood brain barrier and accumulating in the brain	did not induce changes in heart rate and ECG waveforms	all animals survived the image acquisition period with no adverse effects	1-4 % injected dose per gram tissue	capable of passing through blood brain barrier and accumulating in the brain
–	CC(C)(C)n1ncc(OCc2ccc(OCCC[18F])cc2)c(Cl)c1=O [Agent 3, 2-tert-Butyl-4-chloro-5-[4-(3-(^18F)fluoropropoxy)-benzyloxy]-2H-pyridazin-3-one]	–	–	unlike Agent 3, Agent 2 is capable of passing the blood brain barrier	–	–	–	–
